Tests used:
Assay in all cases: relative viability (nuclei count vs DMSO), 5 days (fraction); higher = more cells survive
[1] = compound: CC1=CC=C(C=C1)C(=O)CN2C3=C(CCCC3)SC2=N [Pifithrin_alpha] + CC(C)C[C@H](NC(=O)[C@H](Cc1ccccc1)NC(=O)c1cnccn1)B(O)O [Bortezomib] (partner 0.002 µM)
How it was run: (§1)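 Nuclei were stained with Hoechst during a one-step fixation (final 0.05% Triton X-100, 1% formaldehyde, 1 ug/ml Hoechst) carried out 5 days after dosing, then counted on 4× images. The cells, lung cancer lines in 1536-well plates, had been dosed by pin tool the day after seeding with one drug alone or a fixed anchor-drug dose plus five library-drug doses (not always all listed) in √10 steps. Relative viability is the nuclei count in treated wells divided by that in vehicle wells, and each value is the median of duplicate plates.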

[2] = compound: CC1=CC=C(C=C1)C(=O)CN2C3=C(CCCC3)SC2=N [Pifithrin_alpha] + C[C@]1(O)C[C@@H](c2nc(-c3ccc4ccc(-c5ccccc5)nc4c3)c3c(N)nccn32)C1 [Linsitinib] (partner 1 µM)
How it was run: as §1

[3] = compound: CC1=CC=C(C=C1)C(=O)CN2C3=C(CCCC3)SC2=N [Pifithrin_alpha] + N=C(N)NC(=N)NCCc1ccccc1 [Phenformin] (partner 250 µM)
How it was run: as §1

[4] = compound: Nc1nc(Nc2ccc3c(c2)CC[C@@H](N2CCCC2)CC3)nn1-c1cc2c(nn1)-c1ccccc1CCC2 [Bemcentinib] + Cc1nc(Nc2ncc(C(=O)Nc3c(C)cccc3Cl)s2)cc(N2CCN(CCO)CC2)n1 [Dasatinib] (partner 0.075 µM)
How it was run: as §1

Row | Cell Line | relative viability ([1]; first compound 1 µM) | relative viability ([1]; first compound 3.162 µM) | relative viability ([1]; first compound 10 µM) | relative viability ([1]; first compound 100 µM) | relative viability ([2]; first compound 1 µM) | relative viability ([2]; first compound 3.162 µM) | relative viability ([2]; first compound 10 µM) | relative viability ([2]; first compound 100 µM) | relative viability ([3]; first compound 1 µM) | relative viability ([3]; first compound 3.162 µM) | relative viability ([3]; first compound 10 µM) | relative viability ([3]; first compound 31.62 µM) | relative viability ([3]; first compound 100 µM) | relative viability ([4]; first compound 0.04 µM) | relative viability ([4]; first compound 0.1265 µM) | relative viability ([4]; first compound 0.4 µM) | relative viability ([4]; first compound 1.265 µM) | relative viability ([4]; first compound 4 µM) | relative viability ([1]; first compound 31.62 µM) | relative viability ([2]; first compound 31.62 µM)
1 | NCI-H460 | 1.51 | 1.14 | 0.661 | 0.438 | 0.764 | 0.795 | 0.906 | 0.563 | 0.494 | 0.576 | 0.473 | 0.179 | 0.443 | 0.452 | 0.534 | 0.562 | 0.535 | 0.551 |  | 
2 | NCI-H322M | 1.19 | 1.07 | 1.29 | 1.03 | 0.85 | 0.898 | 0.902 | 1.04 | 0.825 | 0.728 | 0.869 | 0.713 | 0.728 | 0.229 | 0.279 | 0.251 | 0.267 | 0.258 | 1.26 | 0.821
3 | HCC-827 | 0.961 | 1.14 | 0.987 | 0.981 | 0.942 | 0.96 | 0.91 | 0.841 | 0.438 | 0.432 | 0.414 | 0.409 | 0.395 | 0.305 | 0.385 | 0.273 | 0.4 | 0.3 | 0.903 | 0.589
4 | HOP-62 | 0.92 | 0.983 | 0.955 | 1.14 | 1.01 | 0.979 | 1.18 | 1.07 | 0.601 | 0.903 | 0.749 | 0.59 | 0.81 | 0.639 | 0.656 | 0.768 | 0.552 | 0.718 | 0.514 | 0.781
5 | Calu-6 | 1.07 | 1.04 | 0.899 | 0.881 | 0.932 | 1.05 | 0.997 | 0.848 |  |  |  |  |  |  |  |  |  |  | 0.569 | 
6 | NCI-H2023 | 0.724 | 0.86 | 0.856 | 0.669 | 0.674 | 0.511 | 0.63 | 0.476 | 0.521 | 0.485 | 0.456 |  | 0.389 | 0.56 | 0.727 | 0.606 | 0.677 | 0.64 | 0.408 | 0.46
7 | NCI-H441 | 0.245 | 0.821 | 0.442 | 0.503 | 0.52 | 0.528 | 0.613 | 0.662 | 0.893 | 0.988 | 1.15 |  | 0.994 | 0.536 | 0.773 | 0.862 | 0.649 | 0.609 | 0.448 | 0.478
8 | NCI-H2347 | 0.695 |  | 0.855 | 0.874 | 0.967 | 0.913 | 0.907 | 0.95 | 0.452 | 0.471 | 0.394 | 0.416 | 0.543 | 0.322 | 0.288 | 0.327 | 0.269 | 0.308 | 0.814 | 0.635
9 | NCI-H358 |  |  |  |  | 0.777 | 0.83 | 0.671 | 0.541 | 0.353 | 0.389 | 0.357 | 0.272 | 0.344 | 0.153 | 0.146 | 0.148 | 0.163 | 0.171 |  | 0.547

— the supplement of paper PMC10307832
